Assay: xn = mol fraction of the nth substance listed
Details: 101 kPa

Cc1ncc(C[n+]2csc(CCO)c2C)c(N)n1.Cl.[Cl-] + CCCCCCCCCCCCOS(=O)(=O)[O-].[Na+] + O
electrical conductivity [S/m]
Details	288.15 K	298.15 K
x2 = 0, x1 = 1.8e-07	0.00237	0.00291
x2 = 0, x1 = 9e-07	0.0045	0.00489
x2 = 0, x1 = 1.8e-06	0.00578	0.00788
x2 = 7.35e-06, x1 = 1.8e-07	0.00538	0.00635
x2 = 7.35e-06, x1 = 9e-07	0.0077	0.00839
x2 = 7.35e-06, x1 = 1.8e-06	0.00928	0.0119
x2 = 1.463e-05, x1 = 1.8e-07	0.00837	0.0099
x2 = 1.463e-05, x1 = 9e-07	0.0109	0.0118
x2 = 1.463e-05, x1 = 1.8e-06	0.0127	0.0158
x2 = 2.18e-05, x1 = 1.8e-07	0.0112	0.0131
x2 = 2.18e-05, x1 = 9e-07	0.0139	0.0152
x2 = 2.18e-05, x1 = 1.8e-06	0.016	0.0196
x2 = 2.901e-05, x1 = 1.8e-07	0.0139	0.0163
x2 = 2.901e-05, x1 = 9e-07	0.0169	0.0186
x2 = 2.901e-05, x1 = 1.8e-06	0.0192	0.0233
x2 = 3.604e-05, x1 = 1.8e-07	0.0167	0.0196
x2 = 3.604e-05, x1 = 9e-07	0.0197	0.0219
x2 = 3.604e-05, x1 = 1.8e-06	0.0224	0.027
x2 = 4.307e-05, x1 = 1.8e-07	0.0194	0.0228
x2 = 4.307e-05, x1 = 9e-07	0.0225	0.0251
x2 = 4.307e-05, x1 = 1.8e-06	0.0255	0.0308
x2 = 4.991e-05, x1 = 1.8e-07	0.0221	0.026
x2 = 4.991e-05, x1 = 9e-07	0.0253	0.0282
x2 = 4.991e-05, x1 = 1.8e-06	0.0285	0.0347
x2 = 5.676e-05, x1 = 1.8e-07	0.0248	0.0292
x2 = 5.676e-05, x1 = 9e-07	0.0281	0.0312
x2 = 5.676e-05, x1 = 1.8e-06	0.0314	0.0384
x2 = 6.361e-05, x1 = 1.8e-07	0.0274	0.0323
x2 = 6.361e-05, x1 = 9e-07	0.0307	0.0342
x2 = 6.361e-05, x1 = 1.8e-06	0.0342	0.0421
x2 = 7.027e-05, x1 = 1.8e-07	0.0299	0.0354
x2 = 7.027e-05, x1 = 9e-07	0.0332	0.0372
x2 = 7.028e-05, x1 = 1.8e-06	0.037	0.0457
x2 = 7.694e-05, x1 = 1.8e-07	0.0324	0.0385
x2 = 7.694e-05, x1 = 9e-07	0.0357	0.0402
x2 = 7.694e-05, x1 = 1.8e-06	0.0397	0.0492
x2 = 8.361e-05, x1 = 1.8e-07	0.0349	0.0414
x2 = 8.361e-05, x1 = 9e-07	0.0382	0.0431
x2 = 8.361e-05, x1 = 1.8e-06	0.0425	0.0526
x2 = 9.009e-05, x1 = 1.8e-07	0.0374	0.0443
x2 = 9.009e-05, x1 = 9e-07	0.0407	0.046
x2 = 9.009e-05, x1 = 1.8e-06	0.0452	0.0557
x2 = 9.658e-05, x1 = 1.8e-07	0.0398	0.0471
x2 = 9.658e-05, x1 = 9e-07	0.0431	0.0489
x2 = 9.658e-05, x1 = 1.8e-06	0.0478	0.0587
x2 = 0.0001031, x1 = 1.8e-07	0.0422	0.0498
x2 = 0.0001031, x1 = 9e-07	0.0456	0.0518
x2 = 0.0001031, x1 = 1.8e-06	0.0503	0.0616
x2 = 0.0001094, x1 = 1.8e-07	0.0446	0.0524
x2 = 0.0001094, x1 = 9e-07	0.048	0.0545
x2 = 0.0001094, x1 = 1.8e-06	0.0522	0.0643
x2 = 0.0001157, x1 = 1.8e-07	0.0465	0.0549
x2 = 0.0001157, x1 = 9e-07	0.0502	0.0571
x2 = 0.0001157, x1 = 1.8e-06	0.0539	0.0668
x2 = 0.000122, x1 = 1.8e-07	0.0486	0.0574
x2 = 0.000122, x1 = 9e-07	0.0523	0.0595
x2 = 0.000122, x1 = 1.8e-06	0.0555	0.0691
x2 = 0.0001281, x1 = 1.8e-07	0.0508	0.0597
x2 = 0.0001281, x1 = 9e-07	0.0541	0.0615
x2 = 0.0001281, x1 = 1.8e-06	0.0571	0.0712
x2 = 0.0001342, x1 = 1.8e-07	0.0527	0.0619
x2 = 0.0001342, x1 = 9e-07	0.0558	0.0635
x2 = 0.0001342, x1 = 1.8e-06	0.0587	0.0732
x2 = 0.0001404, x1 = 1.8e-07	0.0545	0.0639
x2 = 0.0001404, x1 = 9e-07	0.0573	0.0653
x2 = 0.0001404, x1 = 1.8e-06	0.0601	0.0751
x2 = 0.0001465, x1 = 1.8e-07	0.0561	0.0656
x2 = 0.0001465, x1 = 9e-07	0.0587	0.0669
x2 = 0.0001465, x1 = 1.8e-06	0.0614	0.077
x2 = 0.0001524, x1 = 1.8e-07	0.0577	0.0672
x2 = 0.0001524, x1 = 9e-07	0.0599	0.0685
x2 = 0.0001524, x1 = 1.8e-06	0.0625	0.0789
x2 = 0.0001584, x1 = 1.8e-07	0.059	0.0687
x2 = 0.0001584, x1 = 9e-07	0.0611	0.0699
x2 = 0.0001584, x1 = 1.8e-06	0.0636	0.0807
x2 = 0.0001641, x1 = 1.8e-07	0.0602	0.07
x2 = 0.0001641, x1 = 9e-07	0.0622	0.0712
x2 = 0.0001641, x1 = 1.8e-06	0.0647	0.0825
x2 = 0.0001699, x1 = 1.8e-07	0.0613	0.0712
x2 = 0.0001699, x1 = 9e-07	0.0633	0.0724
x2 = 0.0001699, x1 = 1.8e-06	0.0657	0.0842
x2 = 0.0001757, x1 = 1.8e-07	0.0622	0.0724
x2 = 0.0001757, x1 = 9e-07	0.0643	0.0736
x2 = 0.0001757, x1 = 1.8e-06	0.0667	0.0857
x2 = 0.0001814, x1 = 1.8e-07	0.0632	0.0735
x2 = 0.0001814, x1 = 9e-07	0.0654	0.0748
x2 = 0.0001814, x1 = 1.8e-06	0.0677	0.0872
x2 = 0.000187, x1 = 1.8e-07	0.0641	0.0745
x2 = 0.000187, x1 = 9e-07	0.0664	0.076
x2 = 0.000187, x1 = 1.8e-06	0.0687	0.0885
x2 = 0.0001928, x1 = 1.8e-07	0.0649	0.0755
x2 = 0.0001928, x1 = 9e-07	0.0673	0.0771
x2 = 0.0001928, x1 = 1.8e-06	0.0697	0.0898
x2 = 0.0001982, x1 = 1.8e-07	0.0658	0.0765
x2 = 0.0001982, x1 = 9e-07	0.0683	0.0782
x2 = 0.0001982, x1 = 1.8e-06	0.0707	0.0911
x2 = 0.0002038, x1 = 1.8e-07	0.0666	0.0775
x2 = 0.0002038, x1 = 9e-07	0.0692	0.0794
x2 = 0.0002038, x1 = 1.8e-06	0.0716	0.0924
x2 = 0.0002092, x1 = 1.8e-07	0.0673	0.0784
x2 = 0.0002092, x1 = 9e-07	0.0702	0.0805
x2 = 0.0002092, x1 = 1.8e-06	0.0725	0.0937
x2 = 0.0002147, x1 = 1.8e-07	0.0681	0.0793
x2 = 0.0002148, x1 = 9e-07	0.0711	0.0816
x2 = 0.0002148, x1 = 1.8e-06	0.0734	0.0949
x2 = 0.00022, x1 = 1.8e-07	0.0689	0.0802
x2 = 0.00022, x1 = 9e-07	0.072	0.0826
x2 = 0.00022, x1 = 1.8e-06	0.0743	0.0961
x2 = 0.0002254, x1 = 1.8e-07	0.0696	0.081
x2 = 0.0002254, x1 = 9e-07	0.0729	0.0837
x2 = 0.0002254, x1 = 1.8e-06	0.0752	0.0973
x2 = 0.0002306, x1 = 1.8e-07	0.0703	0.0819
x2 = 0.0002306, x1 = 9e-07	0.0739	0.0848
x2 = 0.0002306, x1 = 1.8e-06	0.0761	0.0983
x2 = 0.0002358, x1 = 1.8e-07	0.071	0.0827
x2 = 0.0002358, x1 = 9e-07	0.0747	0.0858
x2 = 0.0002358, x1 = 1.8e-06	0.077	0.0993
x2 = 0.0002411, x1 = 1.8e-07	0.0717	0.0836
x2 = 0.0002411, x1 = 9e-07	0.0756	0.0869
x2 = 0.0002411, x1 = 1.8e-06	0.0778	0.1

— the CheMixHub ionic liquid set
